Source: ChEMBL document CHEMBL1124561, “Synthesis of acyclonucleoside hydroxamic acids as inhibitors of ribonucleotide reductase” (J Med Chem, 1989)
Where “and” joins values, the source holds several entries; their conditions need not be identical. Identical values can stand only once.

What was measured:
[1] = system: HeLa; assay: Percent inhibition of growth of human cervical carcinoma (HeLa) cells in culture at 2.5 micro g/mL of the compound; assay type: functional
[2] = system: HeLa; assay: Percent inhibition of growth of human cervical carcinoma (HeLa) cells in culture at 10 micro g/mL of the compound; assay type: functional
[3] = system: HeLa; assay: Percent inhibition of growth of human cervical carcinoma (HeLa) cells in culture at 25 micro g/mL of the compound; assay type: functional
[4] = Inhibition against cytidine diphosphate reductase activity in calf thymus; assay type: tissue-based, Bos taurus
[5] = system: HeLa; assay: Percent inhibition of growth of human cervical carcinoma (HeLa) cells in culture at 5 micro g/mL of the compound; assay type: functional
[6] = system: HeLa; assay: Percent inhibition of growth of human cervical carcinoma (HeLa) cells in culture at 50 micro g/mL of the compound; assay type: functional
[7] = system: HeLa; assay: Percent inhibition of growth of human cervical carcinoma (HeLa) cells in culture at 200 micro g/mL of the compound; assay type: functional
[8] = system: HeLa; assay: Percent inhibition of growth of human cervical carcinoma (HeLa) cells in culture at 100 micro g/mL of the compound; assay type: functional
[9] = system: HeLa; assay: Percent inhibition of growth of human cervical carcinoma (HeLa) cells in culture at 0.1 micro g/mL of the compound; assay type: functional
[10] = system: HeLa; assay: Percent inhibition of growth of human cervical carcinoma (HeLa) cells in culture at 1 micro g/mL of the compound; assay type: functional

Row | SMILES | Inhibition [1] [%] | Inhibition [2] | Inhibition [3] [%] | IC50 [4] [mM] | Inhibition [5] [%] | Inhibition [6] [%] | Inhibition [7] [%] | Inhibition [8] [%] | Inhibition [9] [%] | Inhibition [10] [%]
1 | O=C(NO)C(OCCO)n1cc(F)c(=O)[nH]c1=O (centres undefined) | 16.5 | 66% | 75 | 1.4 | 40 | 80 |  |  |  | 
2 | O=C(NO)C(OCCO)n1ccc(=O)[nH]c1=O (centres undefined) |  |  | 19 | 2.2 |  | 13 | 97 | 47 |  | 
3 | Nc1ccn(C(OCCO)C(=O)NO)c(=O)n1 (centres undefined) |  |  |  | 4.9 |  |  | 0 |  |  | 
4 | O=c1[nH]cc(F)c(=O)[nH]1 [FLUOROURACIL] |  | 63.5% and 70% | 77 |  | 34.3 | 90 |  |  | 19 | 55
5 | NC(=O)NO [HYDROXYUREA] |  | 63.5% | 77 | 0.5 | 34.3 | 90 |  |  |  | 
